Active and inactive are the calls of the source.
How the values were obtained:
[1] = target: Heat shock 70 kDa protein 1A (Homo sapiens, UniProt P0DMV8); assay: Hsp70 inhibitors, SAR follow-up, biochemical, fluorescence polarization (AID 1072)
[2] = target: Heat shock cognate 71 kDa protein (Homo sapiens, UniProt P11142); assay: In Vitro Hsc70 Dose Response Fluorescence Polarization Assay. [Related pubchem assays: 1072 ]
Nonstructural protein 1 = Nonstructural protein 1 (Influenza A virus, UniProt Q194T2); type: functional, Influenza A virus (A/California/07/2009(H1N1))
Sequence of Nonstructural protein 1 (Q194T2 whole entry): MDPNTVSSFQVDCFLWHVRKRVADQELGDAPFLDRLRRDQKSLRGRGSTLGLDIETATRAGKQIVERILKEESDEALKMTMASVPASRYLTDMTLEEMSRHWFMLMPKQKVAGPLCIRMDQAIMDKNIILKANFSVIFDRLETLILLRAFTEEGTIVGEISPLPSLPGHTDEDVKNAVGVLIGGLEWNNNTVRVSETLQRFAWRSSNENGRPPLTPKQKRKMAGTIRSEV

[3] = target: T1, Alkaline phosphatase, tissue-nonspecific isozyme (Homo sapiens, UniProt P05186)
T1 sequence (P05186 whole entry): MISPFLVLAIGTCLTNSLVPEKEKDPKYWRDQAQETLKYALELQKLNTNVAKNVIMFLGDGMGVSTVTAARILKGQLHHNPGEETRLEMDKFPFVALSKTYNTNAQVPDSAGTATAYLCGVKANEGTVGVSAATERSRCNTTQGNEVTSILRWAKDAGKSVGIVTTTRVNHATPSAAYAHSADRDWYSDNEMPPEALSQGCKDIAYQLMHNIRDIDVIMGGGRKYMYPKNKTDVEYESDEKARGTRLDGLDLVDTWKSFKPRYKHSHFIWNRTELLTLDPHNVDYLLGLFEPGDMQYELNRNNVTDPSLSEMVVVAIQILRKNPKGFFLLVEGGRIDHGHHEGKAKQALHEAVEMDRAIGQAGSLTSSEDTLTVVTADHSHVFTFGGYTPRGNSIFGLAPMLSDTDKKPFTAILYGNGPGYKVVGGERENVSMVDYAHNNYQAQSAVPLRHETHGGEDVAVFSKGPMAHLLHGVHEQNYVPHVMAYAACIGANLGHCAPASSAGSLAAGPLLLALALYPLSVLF

[4] = target: T2, Melanin-concentrating hormone receptor 1 (Homo sapiens, UniProt Q99705); assay: Late-stage fluorescence-based counterscreen for antagonists of the G-protein coupled receptor 7 (GPR7): cell-based dose response assay to identify antagonists of the melanin-concentrating hormone receptor 1 (MCHR1). [Related pubchem assays (depositor defined):AID1861, AID1880, AID1952, AID2148, AID2251, AID2257, AID485339]; type: functional
T2 sequence (Q99705 whole entry): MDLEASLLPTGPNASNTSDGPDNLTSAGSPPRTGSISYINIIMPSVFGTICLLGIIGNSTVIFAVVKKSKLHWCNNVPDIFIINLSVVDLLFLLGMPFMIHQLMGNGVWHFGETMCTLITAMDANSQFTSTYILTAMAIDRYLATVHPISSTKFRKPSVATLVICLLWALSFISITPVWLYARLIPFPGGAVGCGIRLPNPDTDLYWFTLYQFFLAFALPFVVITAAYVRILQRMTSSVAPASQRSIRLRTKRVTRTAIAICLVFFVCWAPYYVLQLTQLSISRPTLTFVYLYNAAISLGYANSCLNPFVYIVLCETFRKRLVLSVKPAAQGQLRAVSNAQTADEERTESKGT

[5] = target: T3, Neuropeptides B/W receptor type 1 (Homo sapiens, UniProt P48145); assay: Fluorescence-based dose response cell-based high throughput screening assay to identify antagonists of the G-protein coupled receptor 7 (GPR7). [Related pubchem assays: 1952 (Screening assay (GPR7 antagonists).), 1880 (Summary AID.)]; type: functional
T3 sequence (P48145 whole entry): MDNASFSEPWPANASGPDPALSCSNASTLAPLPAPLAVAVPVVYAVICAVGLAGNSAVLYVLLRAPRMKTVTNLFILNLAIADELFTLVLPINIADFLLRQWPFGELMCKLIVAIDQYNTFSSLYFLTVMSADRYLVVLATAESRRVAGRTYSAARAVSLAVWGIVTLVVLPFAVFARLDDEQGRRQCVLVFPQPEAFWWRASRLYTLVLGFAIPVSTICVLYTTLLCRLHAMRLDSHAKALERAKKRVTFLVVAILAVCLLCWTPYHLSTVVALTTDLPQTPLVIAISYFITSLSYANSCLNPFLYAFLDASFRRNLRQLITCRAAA

[6] = target: T2, Melanin-concentrating hormone receptor 1; assay: Fluorescence-based counterscreen for antagonists of the G-protein coupled receptor 7 (GPR7): cell-based high throughput dose response assay to identify antagonists of the melanin-concentrating hormone receptor 1 (MCHR1).; type: functional
Cytochrome P450 2C19 = Cytochrome P450 2C19 (Homo sapiens, UniProt P33261); assay: qHTS Assay for Inhibitors and Substrates of Cytochrome P450 2C19. [Related pubchem assays: 410 ]; type: ADME; conditions: read-out: Potency
Sequence of Cytochrome P450 2C19 (P33261 whole entry): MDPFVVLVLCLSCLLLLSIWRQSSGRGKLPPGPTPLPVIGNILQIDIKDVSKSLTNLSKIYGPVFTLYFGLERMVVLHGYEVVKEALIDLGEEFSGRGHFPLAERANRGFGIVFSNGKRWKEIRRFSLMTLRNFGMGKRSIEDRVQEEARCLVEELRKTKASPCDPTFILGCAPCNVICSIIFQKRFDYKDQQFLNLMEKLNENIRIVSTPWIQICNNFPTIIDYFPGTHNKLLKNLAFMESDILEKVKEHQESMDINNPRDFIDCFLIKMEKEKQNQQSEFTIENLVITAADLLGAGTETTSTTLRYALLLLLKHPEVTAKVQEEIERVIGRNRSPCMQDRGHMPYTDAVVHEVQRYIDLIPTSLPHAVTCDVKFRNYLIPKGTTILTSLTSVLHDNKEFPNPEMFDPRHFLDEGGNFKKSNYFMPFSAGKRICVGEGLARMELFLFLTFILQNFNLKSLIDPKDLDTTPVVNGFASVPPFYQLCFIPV

Cytochrome P450 2C9 = Cytochrome P450 2C9 (Homo sapiens, UniProt P11712); conditions: Potency
Sequence of Cytochrome P450 2C9 (P11712 whole entry): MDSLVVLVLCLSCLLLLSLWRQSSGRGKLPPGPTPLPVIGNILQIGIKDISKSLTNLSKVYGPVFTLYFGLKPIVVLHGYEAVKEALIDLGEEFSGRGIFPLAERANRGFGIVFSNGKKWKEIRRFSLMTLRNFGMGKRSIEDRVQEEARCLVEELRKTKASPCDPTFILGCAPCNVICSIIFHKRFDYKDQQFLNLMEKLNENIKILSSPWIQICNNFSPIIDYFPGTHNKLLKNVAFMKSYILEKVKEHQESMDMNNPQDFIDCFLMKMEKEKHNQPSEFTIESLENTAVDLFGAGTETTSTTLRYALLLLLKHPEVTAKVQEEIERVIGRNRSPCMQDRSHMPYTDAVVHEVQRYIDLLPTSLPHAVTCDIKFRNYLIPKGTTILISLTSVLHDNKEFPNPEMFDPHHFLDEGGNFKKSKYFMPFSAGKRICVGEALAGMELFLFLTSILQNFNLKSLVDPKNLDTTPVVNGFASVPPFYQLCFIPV

Aminopeptidase N = target: T4, Aminopeptidase N (Plasmodium falciparum FcB1/Columbia, UniProt O96935); assay: P. falciparum M1AAP inhibitors, biochemical, fluorogenic H-Leu-NHMec substrate, 1536-well (AID 1445); set-up: species or system Plasmodium falciparum 3D7, 3D7
T4 sequence (O96935 whole entry): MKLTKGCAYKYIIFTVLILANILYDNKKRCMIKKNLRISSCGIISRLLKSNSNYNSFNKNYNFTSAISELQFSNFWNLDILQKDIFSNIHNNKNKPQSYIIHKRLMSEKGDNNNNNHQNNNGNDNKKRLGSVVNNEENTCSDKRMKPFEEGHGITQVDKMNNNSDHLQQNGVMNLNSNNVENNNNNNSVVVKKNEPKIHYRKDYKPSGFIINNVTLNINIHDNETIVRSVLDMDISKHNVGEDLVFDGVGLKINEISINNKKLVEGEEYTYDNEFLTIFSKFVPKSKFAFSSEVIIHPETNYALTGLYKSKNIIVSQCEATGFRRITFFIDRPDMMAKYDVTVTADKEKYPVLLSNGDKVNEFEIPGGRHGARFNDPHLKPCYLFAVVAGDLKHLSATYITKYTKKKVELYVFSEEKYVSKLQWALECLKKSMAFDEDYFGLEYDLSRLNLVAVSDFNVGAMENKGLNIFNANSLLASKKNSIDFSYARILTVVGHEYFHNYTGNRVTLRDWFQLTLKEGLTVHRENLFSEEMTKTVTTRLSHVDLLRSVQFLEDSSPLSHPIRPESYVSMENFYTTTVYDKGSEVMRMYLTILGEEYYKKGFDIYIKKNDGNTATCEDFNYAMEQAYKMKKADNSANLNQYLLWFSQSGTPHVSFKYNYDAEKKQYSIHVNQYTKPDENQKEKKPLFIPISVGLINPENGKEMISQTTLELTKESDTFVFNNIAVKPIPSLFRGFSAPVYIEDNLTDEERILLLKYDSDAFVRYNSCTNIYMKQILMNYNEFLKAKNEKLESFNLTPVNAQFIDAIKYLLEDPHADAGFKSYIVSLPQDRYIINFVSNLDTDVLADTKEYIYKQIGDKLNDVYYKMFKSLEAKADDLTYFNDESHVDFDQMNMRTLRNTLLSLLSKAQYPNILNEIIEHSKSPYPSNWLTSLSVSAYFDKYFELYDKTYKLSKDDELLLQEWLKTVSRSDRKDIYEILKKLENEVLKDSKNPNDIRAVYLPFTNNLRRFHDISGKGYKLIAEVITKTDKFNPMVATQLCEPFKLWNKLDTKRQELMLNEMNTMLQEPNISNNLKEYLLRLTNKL

[7] = off-target signal loss in HeLa-CEM21 co-culture – HeLa F-luc CTL cells, cherry-picked, counter-screen for HIV-1 Env fusion inhibitor project, dose response (AID 652040); type: functional, cell-based;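 further: potency for signal decrease marking cytotoxic or nonspecific inhibition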
[8] = target: T5, High affinity choline transporter 1 (Homo sapiens, UniProt Q9GZV3); assay: CHT inhibitors, dose response, cell-based, 5-point CRC, membrane potential dye (AID 504840); type: functional
T5 sequence (Q9GZV3 whole entry): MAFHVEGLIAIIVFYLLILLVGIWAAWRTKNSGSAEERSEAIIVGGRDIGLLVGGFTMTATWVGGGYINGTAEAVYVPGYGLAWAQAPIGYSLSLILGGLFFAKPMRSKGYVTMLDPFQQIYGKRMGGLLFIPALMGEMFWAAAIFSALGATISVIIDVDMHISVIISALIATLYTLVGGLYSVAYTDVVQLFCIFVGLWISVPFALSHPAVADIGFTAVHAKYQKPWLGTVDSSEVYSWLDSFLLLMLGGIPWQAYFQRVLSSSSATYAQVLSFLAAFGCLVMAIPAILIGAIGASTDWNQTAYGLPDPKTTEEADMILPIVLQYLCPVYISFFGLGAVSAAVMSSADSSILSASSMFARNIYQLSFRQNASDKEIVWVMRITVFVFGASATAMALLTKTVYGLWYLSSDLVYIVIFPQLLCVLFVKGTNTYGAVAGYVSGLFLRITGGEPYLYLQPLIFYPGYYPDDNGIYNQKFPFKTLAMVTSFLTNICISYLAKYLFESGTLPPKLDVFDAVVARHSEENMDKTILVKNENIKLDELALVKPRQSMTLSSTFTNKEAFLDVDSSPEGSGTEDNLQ

[9] = inhibitors of clade B AD8 Env fusion, dose response, cell-based, cherry-pick (AID 652062); type: functional;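 further: luciferase signal from cell-cell fusion driven by HIV-1 clade B AD8 Env; potency is for inhibitors of fusion seen as a drop in luminescence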
[10] = inhibitors of HIV Env-driven cell fusion, dose response, cherry-pick (AID 652057); type: functional, cell-based
[11] = HIV-1 Env-mediated cell fusion inhibitors, dose response, CCR5-tropic Env (AID 2279); type: functional
[12] = Glucagon-like peptide 1 release potency, NCI-H716 cell line, dose-response, half-maximal inhibitory concentration (AID 1117344); type: functional, cell-based
[13] = cytotoxicity in HPDE-C7 cells, cell-based, fluorescence, HTS (AID 430); type: functional; conditions: Homo sapiens
[14] = target: T6, Replicative DNA helicase DnaB (Mycobacterium tuberculosis, UniProt P9WMR3); assay: DnaB intein splicing inhibitors, dose response, biochemical, cell-free fluorescence (AID 449749); type: functional
T6 sequence (P9WMR3 whole entry): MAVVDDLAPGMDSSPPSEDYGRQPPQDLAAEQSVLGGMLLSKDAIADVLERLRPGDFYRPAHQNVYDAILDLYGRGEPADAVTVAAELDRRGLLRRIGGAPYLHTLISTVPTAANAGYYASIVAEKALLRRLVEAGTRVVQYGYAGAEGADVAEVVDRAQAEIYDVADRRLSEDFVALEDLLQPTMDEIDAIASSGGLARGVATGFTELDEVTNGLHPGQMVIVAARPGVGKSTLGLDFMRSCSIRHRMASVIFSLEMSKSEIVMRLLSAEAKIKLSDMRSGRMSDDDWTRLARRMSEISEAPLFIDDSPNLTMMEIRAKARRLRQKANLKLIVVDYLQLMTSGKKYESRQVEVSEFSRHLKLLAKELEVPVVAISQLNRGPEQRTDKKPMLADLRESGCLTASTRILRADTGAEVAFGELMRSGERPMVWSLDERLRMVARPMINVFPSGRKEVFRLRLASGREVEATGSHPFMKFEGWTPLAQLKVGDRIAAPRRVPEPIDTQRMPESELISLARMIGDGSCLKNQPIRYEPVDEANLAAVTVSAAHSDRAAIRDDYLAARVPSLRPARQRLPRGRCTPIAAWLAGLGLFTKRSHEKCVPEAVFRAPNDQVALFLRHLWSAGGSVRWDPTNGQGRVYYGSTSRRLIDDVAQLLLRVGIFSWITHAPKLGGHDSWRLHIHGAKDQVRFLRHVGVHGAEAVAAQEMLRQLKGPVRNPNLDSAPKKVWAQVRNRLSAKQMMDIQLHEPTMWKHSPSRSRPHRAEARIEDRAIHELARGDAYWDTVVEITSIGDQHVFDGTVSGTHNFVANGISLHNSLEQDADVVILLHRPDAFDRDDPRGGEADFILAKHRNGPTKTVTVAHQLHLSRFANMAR

[15] = target: Heat shock protein HSP 90-alpha (Homo sapiens, UniProt P07900); type: functional, organism-based
[16] = cytotoxicity in KRAS-transformed pancreatic duct cells, primary screen, cell-based, fluorescence, HTS (AID 431); type: functional; conditions: Homo sapiens;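 further: cell line used: HPDE-C7K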
[17] = half-maximal inhibitory concentration for glucagon-like peptide-1 release, STC-1 cell line, dose-response (AID 1117345); type: functional, cell-based
Protein RecA = target: T7, Protein RecA (Mycobacterium tuberculosis, UniProt P9WHJ3); assay: Fluorescence Cell-Free Homogeneous Dose Retest to Identify Inhibitors of RecA-Intein Splicing Activity. [Related pubchem assays (depositor defined):AID2097, AID2223, AID489010, AID492950]; type: functional
T7 sequence (P9WHJ3 whole entry): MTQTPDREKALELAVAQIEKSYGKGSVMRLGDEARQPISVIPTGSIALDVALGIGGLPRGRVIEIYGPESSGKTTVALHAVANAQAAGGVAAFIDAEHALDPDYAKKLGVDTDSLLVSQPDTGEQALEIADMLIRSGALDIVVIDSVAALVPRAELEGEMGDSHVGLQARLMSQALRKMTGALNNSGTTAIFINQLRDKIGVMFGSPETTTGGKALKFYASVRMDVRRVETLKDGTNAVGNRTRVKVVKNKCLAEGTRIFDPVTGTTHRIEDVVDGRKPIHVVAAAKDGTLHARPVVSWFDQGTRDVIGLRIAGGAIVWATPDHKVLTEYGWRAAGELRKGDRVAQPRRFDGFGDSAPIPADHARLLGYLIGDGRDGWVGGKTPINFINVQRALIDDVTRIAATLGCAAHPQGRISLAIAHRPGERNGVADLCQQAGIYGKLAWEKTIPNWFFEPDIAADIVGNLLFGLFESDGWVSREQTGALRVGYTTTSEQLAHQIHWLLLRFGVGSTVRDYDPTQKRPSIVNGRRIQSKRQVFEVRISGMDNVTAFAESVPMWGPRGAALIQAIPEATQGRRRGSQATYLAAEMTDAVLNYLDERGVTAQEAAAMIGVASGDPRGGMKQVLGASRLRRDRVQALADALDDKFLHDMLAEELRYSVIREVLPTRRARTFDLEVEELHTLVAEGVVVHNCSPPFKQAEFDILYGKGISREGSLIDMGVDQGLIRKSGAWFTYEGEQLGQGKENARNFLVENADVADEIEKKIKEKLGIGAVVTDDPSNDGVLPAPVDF

Sequence of Heat shock 70 kDa protein 1A (P0DMV8 whole entry): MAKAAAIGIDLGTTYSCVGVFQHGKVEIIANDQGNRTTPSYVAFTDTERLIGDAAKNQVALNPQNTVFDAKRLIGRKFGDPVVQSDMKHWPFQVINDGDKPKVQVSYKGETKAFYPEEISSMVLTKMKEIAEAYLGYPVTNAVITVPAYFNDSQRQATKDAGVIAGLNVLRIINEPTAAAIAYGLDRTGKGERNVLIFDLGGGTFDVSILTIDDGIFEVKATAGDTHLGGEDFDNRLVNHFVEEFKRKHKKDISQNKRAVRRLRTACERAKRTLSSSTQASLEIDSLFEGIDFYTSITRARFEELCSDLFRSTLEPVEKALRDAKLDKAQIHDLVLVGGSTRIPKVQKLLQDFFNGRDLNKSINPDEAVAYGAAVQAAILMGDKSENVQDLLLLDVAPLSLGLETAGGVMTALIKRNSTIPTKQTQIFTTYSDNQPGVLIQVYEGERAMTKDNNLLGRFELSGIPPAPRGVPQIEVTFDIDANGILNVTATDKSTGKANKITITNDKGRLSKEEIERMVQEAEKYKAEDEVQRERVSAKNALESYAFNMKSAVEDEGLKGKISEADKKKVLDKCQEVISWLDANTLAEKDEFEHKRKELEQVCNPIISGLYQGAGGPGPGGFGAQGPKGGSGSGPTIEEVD
Sequence of Heat shock cognate 71 kDa protein (P11142 whole entry): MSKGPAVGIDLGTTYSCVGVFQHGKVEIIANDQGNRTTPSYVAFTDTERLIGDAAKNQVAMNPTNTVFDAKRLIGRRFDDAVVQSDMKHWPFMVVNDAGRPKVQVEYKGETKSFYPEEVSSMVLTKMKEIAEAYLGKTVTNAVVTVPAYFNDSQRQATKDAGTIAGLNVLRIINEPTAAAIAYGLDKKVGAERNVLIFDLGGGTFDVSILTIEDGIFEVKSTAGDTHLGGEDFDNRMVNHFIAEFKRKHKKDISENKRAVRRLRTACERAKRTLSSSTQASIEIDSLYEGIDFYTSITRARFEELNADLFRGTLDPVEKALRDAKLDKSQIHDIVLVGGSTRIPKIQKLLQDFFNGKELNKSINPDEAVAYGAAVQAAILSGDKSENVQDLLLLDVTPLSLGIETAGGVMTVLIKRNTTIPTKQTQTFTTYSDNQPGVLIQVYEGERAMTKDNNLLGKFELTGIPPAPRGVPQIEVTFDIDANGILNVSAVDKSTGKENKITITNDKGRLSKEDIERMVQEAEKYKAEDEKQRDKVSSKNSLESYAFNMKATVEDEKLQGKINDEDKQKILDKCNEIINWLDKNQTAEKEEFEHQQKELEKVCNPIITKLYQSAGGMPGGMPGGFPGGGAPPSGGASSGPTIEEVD

O=C1C=C2CC3(O)CCc4c(ccc(O)c4O)C3=C2C=C1O (stereo not given)
IC50 [1]: 34.2 µM (active) | IC50 [2]: > 100 µM (not active)

Cc1c(C(=O)N(C)C)sc2[nH]c(-c3ccccn3)nc(=O)c12
IC50 (Nonstructural protein 1): 13.1 µM (active) | EC50 [3]: 63.6 µM (not active)

COc1ccc(Oc2c(/C=N/O)cnn(-c3ccc(C(C)C)cc3)c2=O)cc1
IC50 [4]: > 20 µM (inactive)

COc1ccc(OCC(=O)Nc2ccc3c(c2)C(=O)NC3=O)cc1
IC50 [5]: > 43.8 µM (not active) | IC50 [6]: > 43.8 µM (not active)

CCCCCCCCCCCCCCCCOC[C@@H](COCC(F)(F)F)OP(=O)(O)OCO
AC50 (Cytochrome P450 2C19): 0.002 µM (inconclusive) | AC50 (Cytochrome P450 2C9): 39.8 µM (inconclusive)

O=S(=O)(Nc1nc2ccccc2nc1Nc1cccc(S(=O)(=O)N2CCCCC2)c1)c1ccccc1
IC50 (Aminopeptidase N): 91.9 µM (active) | AC50 [7]: 23.9 µM (active) | IC50 [8]: 12 µM (active) | AC50 [9]: 12 µM (active) | AC50 [10]: 8.16 µM (active) | IC50 [11]: 5.7 µM (active)

Clc1ccc(CSC(Cn2ccnc2)c2ccc(Cl)cc2Cl)cc1 (stereo not given) [SULCONAZOLE NITRATE]
EC50 [3]: 60.3 µM (not active) | IC50 [12]: 21 µM (inactive) | EC50 [13]: 7.1 µM (active) | AC50 [14]: 3.52 µM (active) | AC50 [15]: 0.294 µM (active) | EC50 [16]: 8.21 µM (active) | IC50 [17]: > 40 µM (inactive) | EC50 (Protein RecA): 9.78 µM (active)

Cc1ccc(C(=O)N2CCCCC2)cc1S(=O)(=O)N1CCCCCC1
IC50 [5]: > 43.8 µM (not active) | IC50 [6]: > 43.8 µM (not active)

— ChEMBL document CHEMBL1201862, “PubChem BioAssay data set” (2004)
